Data published in patent US8377974B2 (Millennium Pharmaceuticals, Inc., priority 2004, dated 2013).

Target: T1, human plasma protein factor Xa (Homo sapiens, UniProt P00742)
T1 construct: measure proteolytic activity of the enzyme (factor Xa); purchased Haematologic Technologies (Essex Junction, Vt.); host or cells: human plasma
Assay: Factor Xa IC50 determination: cleavage of paranitroanilide substrate S-2765 in 96-well plates
Type: biochemical
Conditions: fXa 1 nM, S-2765 100 μM, Tris buffered saline pH 7.4, room temperature
Procedure, shortened: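 Human plasma factor Xa (1 nM) preincubated 5 min at room temperature with inhibitor (0.01 nM–10 μM final) in Tris-buffered saline pH 7.4 with 5 mM CaCl2, 0.1% BSA, 5% DMSO. S-2765 at 100 μM final; hydrolysis at 405 nm over 2 min. IC50 from 4-parameter fit of initial velocities.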

T1 sequence (P00742 235-488 limits assumed): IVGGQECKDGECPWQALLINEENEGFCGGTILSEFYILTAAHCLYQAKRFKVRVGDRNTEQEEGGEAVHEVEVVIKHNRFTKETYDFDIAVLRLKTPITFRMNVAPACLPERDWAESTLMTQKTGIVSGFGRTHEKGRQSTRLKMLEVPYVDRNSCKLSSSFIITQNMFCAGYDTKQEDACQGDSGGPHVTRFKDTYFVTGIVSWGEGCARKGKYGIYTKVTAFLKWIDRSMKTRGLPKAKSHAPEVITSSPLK
T1 sequence (P00742 41-179 partner limits assumed): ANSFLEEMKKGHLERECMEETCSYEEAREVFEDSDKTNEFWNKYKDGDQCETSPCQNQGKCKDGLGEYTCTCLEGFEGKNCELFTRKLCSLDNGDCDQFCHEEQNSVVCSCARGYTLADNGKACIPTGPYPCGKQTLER

Compound: N=C(c1ccc(-c2cc(CNC(=O)c3ccc(Cl)s3)on2)cc1)N1CCC1 [Example 26, 5-Chloro-thiophene-2-carboxylic acid {3-[4-(azetidin-1-yl-imino-methyl)-phenyl]-isoxazol-5-ylmethyl}-amide]
- IC50: ≤ 0.1 µM

Compound: Cc1cccn(-c2ccc(C3=NOC(CNC(=O)c4ccc(Cl)s4)C3)cc2)c1=O (stereo not drawn) [Example 281, 5-Chloro-N-((3-(4-(3-methyl-2-oxopyridin-1(2H)-yl)phenyl)-4,5-dihydroisoxazol-5-yl)methyl)thiophene-2-carboxamide]
- IC50: ≤ 0.1 µM

Compound: CCn1nccc1Nc1ccc(C2=NOC(CNC(=O)c3ccc(Cl)s3)C2)cc1 (stereo not drawn) [Example 232, 5-Chloro-thiophene-2-carboxylic acid {3-[4-(2-ethyl-2H-pyrazol-3-ylamino)-phenyl]-4,5-dihydro-isoxazol-5-ylmethyl}-amide]
- IC50: ≥ 0.5 µM

Compound: O=C(NCC1CC(c2ccc(NCc3ccccc3)cc2)=NO1)c1ccc(Cl)s1 (stereo not drawn) [Example 221, 5-Chloro-thiophene-2-carboxylic acid [3-(4-benzylamino-phenyl)-4,5-dihydro-isoxazol-5-ylmethyl]-amide]
- IC50: ≥ 0.5 µM

Compound: O=C(NCC1CC(c2ccc(Nc3ccc(F)cc3)cc2)=NO1)c1ccc(Cl)s1 (stereo not drawn) [Example 223, 5-Chloro-thiophene-2-carboxylic acid {3-[4-(4-fluoro-phenylamino)-phenyl]-4,5-dihydro-isoxazol-5-ylmethyl}-amide]
- IC50: ≥ 0.5 µM

Compound: CC(C)Oc1cc(C(=N)N2CCCCC2)ccc1-c1cc(CNC(=O)c2ccc(Cl)s2)on1 [Example 129, 5-Chloro-thiophene-2-carboxylic acid {3-[4-(imino-piperidin-1-yl-methyl)-2-isopropoxy-phenyl]-isoxazol-5-ylmethyl}-amide]
- IC50: ≤ 0.1 µM

Compound: CN(C)C(=N)c1ccc(C2=NOC(C)(CNC(=O)c3ccc(Cl)s3)C2)cc1 (stereo not drawn) [Example 57, 5-Chloro-thiophene-2-carboxylic acid {3-[4-(N,N-dimethyl-carbamimidoyl)-phenyl]-5-methyl-4,5-dihydro-isoxazol-5-ylmethyl}-amide]
- IC50: ≤ 0.1 µM

Compound: CN(C)Cc1cccc(-c2cccc(C3=NOC(CNC(=O)c4ccc(Cl)s4)C3)c2)c1 (stereo not drawn) [Example 264, 5-Chloro-thiophene-2-carboxylic acid [3-(3′-dimethylaminomethyl-biphenyl-3-yl)-4,5-dihydro-isoxazol-5-ylmethyl]-amide]
- IC50: ≥ 0.5 µM

Compound: CN(C)C(=N)c1ccc(-c2cc(CNC(=O)c3ccc(Cl)s3)on2)c(Oc2ccccc2)c1 [Example 130, 5-Chloro-thiophene-2-carboxylic acid {3-[4-(N,N-dimethyl-carbamimidoyl)-2-phenoxy-phenyl]-isoxazol-5-ylmethyl}-amide]
- IC50: ≤ 0.1 µM

Compound: O=C(NCC1CC(c2ccccc2)=NO1)c1ccc(Cl)s1 (stereo not drawn) [Example 144, 5-Chloro-thiophene-2-carboxylic acid (3-phenyl-4,5-dihydro-isoxazol-5-ylmethyl)-amide]
- IC50: ≥ 0.5 µM

Compound: COc1ccc(Oc2cc(C3=NCCN3C)ccc2-c2cc(CNC(=O)c3ccc(Cl)s3)on2)cc1 [Example 134, 5-Chloro-thiophene-2-carboxylic acid {3-[2-(4-methoxy-phenoxy)-4-(1-methyl-4,5-dihydro-1H-imidazol-2-yl)-phenyl]-isoxazol-5-ylmethyl}-amide]
- IC50: ≤ 0.1 µM

Compound: O=C(NCC1CC(c2ccc(N3CCCC3=O)cc2)=NO1)c1ccc(Cl)s1 (stereo not drawn) [Example 240, 5-Chloro-thiophene-2-carboxylic acid {3-[4-(2-oxo-pyrrolidin-1-yl)-phenyl]-4,5-dihydro-isoxazol-5-ylmethyl}-amide]
- IC50: ≤ 0.1 µM

Compound: COc1cc(C(=N)N2CCCCC2)ccc1C1=NOC(CNC(=O)c2ccc(Cl)s2)C1 (stereo not drawn) [Example 105, 5-Chloro-thiophene-2-carboxylic acid {3-[4-(imino-piperidin-1-yl-methyl)-2-methoxy-phenyl]-4,5-dihydro-isoxazol-5-ylmethyl}-amide]
- IC50: ≤ 0.1 µM

Compound: O=C(NCC1CC(c2cccc(-c3ccncc3)c2)=NO1)c1ccc(Cl)s1 (stereo not drawn) [Example 275, 5-Chloro-thiophene-2-carboxylic acid [3-(3-pyridin-4-yl-phenyl)-4,5-dihydro-isoxazol-5-ylmethyl]-amide]
- IC50: ≥ 0.5 µM

Compound: C#CCN(C)C(=N)c1ccc(-c2nc(CNC(=O)c3ccc(Cl)s3)cs2)cc1 [Example 357, N-((2-(4-(N-Methyl-N-(prop-2-ynyl)carbamimidoyl)phenyl)thiazol-4-yl)methyl)-5-chlorothiophene-2-carboxamide]
- IC50: ≥ 0.5 µM

Compound: CN(C)Cc1cccc(-c2cccc(-c3cc(CNC(=O)c4ccc(Cl)s4)on3)c2)c1 [Example 270, 5-Chloro-thiophene-2-carboxylic acid [3-(3′-dimethylaminomethyl-biphenyl-3-yl)-isoxazol-5-ylmethyl]-amide]
- IC50: ≥ 0.5 µM

Compound: CCOC(=O)C1CCN(C(=N)c2ccc(C3=NOC(CNC(=O)c4ccc(Cl)s4)C3)cc2)CC1 (stereo not drawn) [Example 12, 1-{[4-(5-{[(5-Chloro-thiophene-2-carbonyl)-amino]-methyl}-4,5-dihydro-isoxazol-3-yl)-phenyl]-imino-methyl}-piperidine-4-carboxylic acid ethyl ester]
- IC50: 0.1 to 0.5 µM

Compound: O=C(NCC1CC(c2cccc(-c3cccc(CN4CCCC4)c3)c2)=NO1)c1ccc(Cl)s1 (stereo not drawn) [Example 265, 5-Chloro-thiophene-2-carboxylic acid [3-(3′-pyrrolidin-1-ylmethyl-biphenyl-3-yl)-4,5-dihydro-isoxazol-5-ylmethyl]-amide]
- IC50: ≥ 0.5 µM

Compound: CNC(=N)c1ccc(-c2cc(CNC(=O)c3ccc(Cl)s3)on2)cc1 [Example 34, 5-Chloro-thiophene-2-carboxylic acid {3-[4-(N-methylcarbamimidoyl)-phenyl]-isoxazol-5-ylmethyl}-amide]
- IC50: ≥ 0.5 µM

Compound: O=C(NCc1cc(-c2cccc(Br)c2)no1)c1ccc(Cl)s1 [Example 4, 5-Chloro-thiophene-2-carboxylic acid [3-(3-bromo-phenyl)-isoxazol-5-ylmethyl]-amide]
- IC50: ≥ 0.5 µM

Compound: N=C(c1ccc(-c2cncc(CNC(=O)c3ccc(Cl)s3)c2)cc1)N1CCC1 [Example 371, N-((5-(4-(Azetidin-1-yl(imino)methyl)phenyl)pyridin-3-yl)methyl)-5-chlorothiophene-2-carboxamide]
- IC50: ≤ 0.1 µM

Compound: COCCN(C)C(=N)c1ccc(-n2cc(CNC(=O)c3ccc(Cl)s3)nn2)cc1 [Example 316, N-((1-(4-(N-(2-Methoxyethyl)-N-methylcarbamimidoyl)phenyl)-1H-1,2,3-triazol-4-yl)methyl)-5-chlorothiophene-2-carboxamide]
- IC50: ≤ 0.1 µM

Compound: Nc1ccccc1-c1ccc(C2=NOC(CNC(=O)c3ccc(Cl)s3)C2)cc1 (stereo not drawn) [Example 186, 5-Chloro-thiophene-2-carboxylic acid [3-(2′-amino-biphenyl-4-yl)-4,5-dihydro-isoxazol-5-ylmethyl]-amide]
- IC50: 0.1 to 0.5 µM

Compound: O=C(NCc1cn(-c2ccc(N3CCCCC3=O)nc2)nn1)c1ccc(Cl)s1 [Example 388, 5-Chloro-N-((1-(6-(2-oxopiperidin-1-yl)pyridin-3-yl)-1H-1,2,3-triazol-4-yl)methyl)thiophene-2-carboxamide]
- IC50: ≤ 0.1 µM

Compound: N=C(c1ccc(C2=NOC(CNC(=O)c3ccc(Cl)s3)C2)c(N2CCCC2)c1)N1CCCC1 (stereo not drawn) [Example 80, 5-Chloro-thiophene-2-carboxylic acid {3-[4-(imino-pyrrolidin-1-yl-methyl)-2-pyrrolidin-1-yl-phenyl]-4,5-dihydro-isoxazol-5-ylmethyl}-amide]
- IC50: 0.1 to 0.5 µM

Compound: CCOC(=O)C1CCN(C(=N)c2ccc(-c3cc(CNC(=O)c4ccc(Cl)s4)on3)cc2)CC1 [Example 25, 1-{[4-(5-{[(5-Chloro-thiophene-2-carbonyl)-amino]-methyl}-isoxazol-3-yl)-phenyl]-imino-methyl}-piperidine-4-carboxylic acid ethyl ester]
- IC50: ≤ 0.1 µM

Compound: C[C@@H](NC(=O)c1ccc(Cl)s1)c1cc(-c2ccc(C(=N)N3CCCCC3)cc2)no1 [Example 52, (R)-5-Chloro-thiophene-2-carboxylic acid (1-{3-[4-(imino-piperidin-1-yl-methyl)-phenyl]-isoxazol-5-yl}-ethyl)-amide]
- IC50: ≥ 0.5 µM

Compound: N=C(c1ccc(-n2cnc(CNC(=O)c3ccc(Cl)s3)c2)cc1)N1CCCCC1 [Example 368, 5-Chloro-N-((1-(4-(imino(piperidin-1-yl)methyl)phenyl)-1H-imidazol-4-yl)methyl)thiophene-2-carboxamide]
- IC50: ≤ 0.1 µM

Compound: COC(=O)c1ccccc1Nc1ccc(C2=NOC(CNC(=O)c3ccc(Cl)s3)C2)cc1 (stereo not drawn) [Example 260, 2-[4-(5-{[(5-Chloro-thiophene-2-carbonyl)-amino]-methyl}-4,5-dihydro-isoxazol-3-yl)-phenylamino]-benzoic acid methyl ester]
- IC50: ≥ 0.5 µM

Compound: O=C(NCC1CC(c2ccc(Br)cc2)=NO1)c1ccc(Cl)s1 (stereo not drawn) [Example 1, 5-Chloro-thiophene-2-carboxylic acid [3-(4-bromo-phenyl)-4,5-dihydro-isoxazol-5-ylmethyl]-amide]
- IC50: ≥ 0.5 µM

Compound: COc1ccccc1-c1ccc(C2=NOC(CNC(=O)c3ccc(Cl)s3)C2)cc1 (stereo not drawn) [Example 188, 5-Chloro-thiophene-2-carboxylic acid [3-(2′-methoxy-biphenyl-4-yl)-4,5-dihydro-isoxazol-5-ylmethyl]-amide]
- IC50: 0.1 to 0.5 µM

Compound: CC1(CNC(=O)c2ccc(Cl)s2)CC(c2ccc(C(=N)N3CCCC3)cc2)=NO1 (stereo not drawn) [Example 59, 5-Chloro-thiophene-2-carboxylic acid {3-[4-(imino-pyrrolidin-1-yl-methyl)-phenyl]-5-methyl-4,5-dihydro-isoxazol-5-ylmethyl}-amide]
- IC50: ≤ 0.1 µM

Compound: CN(Cc1cc(-c2ccc(C(=N)N3CCC3)cc2)no1)C(=O)c1ccc(Cl)s1 [Example 40, 5-Chloro-thiophene-2-carboxylic acid {3-[4-(azetidin-1-yl-imino-methyl)-phenyl]-isoxazol-5-ylmethyl}-methyl-amide]
- IC50: ≥ 0.5 µM
